Assay results from patent publication US10624968B2, “Compounds for treating cancer” (Bicycle Therapeutics Limited, priority 2017, dated 2020).
Starred links: 1 amine or outer side, 2 acyl side, 3 side chain; linkers in the order of their positions; H or OH if unused. Positions of bridges follow the written chain, without caps; N, C: chain ends. Non-standard residues stand in square brackets, D forms with d. Residues, ends and D or L forms follow the SMILES beside them. ξ: configuration not given here. *: point of attachment. X4 = COc1cc2cc(c1Cl)N(C)C(=O)C[C@H](OC(=O)[C@H](C)N(C)C(=O)CCN(C)*)[C@]1(C)O[C@H]1[C@H](C)[C@@H]1C[C@@](O)(NC(=O)O1)[C@H](OC)/C=C/C=C(\C)C2; 1Nal = N[C@@H](Cc1cccc2ccccc12)C(=O)O; TBMB = c1c(C[*:1])cc(C[*:3])cc1C[*:2]; PABC = O=C(OCc1ccc(N[*:1])cc1)[*:2]; Glutaryl = O=C(CCCC(=O)[*:2])[*:1]; ξ1Nal = NC(Cc1cccc2ccccc12)C(=O)O; Cit = NC(=O)NCCC[C@H](N)C(=O)O; Tle = CC(C)(C)[C@H](N)C(=O)O; ξY = NC(Cc1ccc(O)cc1)C(=O)O; ξTle = CC(C)(C)C(N)C(=O)O; ξF = NC(Cc1ccccc1)C(=O)O; ξE = NC(CCC(=O)O)C(=O)O; ξD = NC(CC(=O)O)C(=O)O; ξN = NC(=O)CC(N)C(=O)O; ξC = NC(CS)C(=O)O; βAla = NCCC(=O)O; ξA = CC(N)C(=O)O; Sar = CNCC(=O)O

Columns and labels:
[1] = Mortality, morbidity and body weight in HT1080 xenograft study (Example 13); assay type: in vivo, mouse
Procedure: (§1) All the procedures related to animal handling, care and the treatment in the study were performed following the guidance of the Association for Assessment and Accreditation of Laboratory Animal Care (AAALAC). At the time of routine monitoring, the animals were daily checked for any effects of tumor growth and treatments on normal behavior such as mobility, food and water consumption (by looking only), body weight gain/loss (body weights were measured every day), eye/hair matting and any other abnormal effect as stated in the protocol. Death and observed clinical signs were recorded on the basis of the numbers of animals within each subset.
Body weight was monitored regularly as an indirect measure of toxicity.

[2] = target: MMP24 (Homo sapiens, UniProt Q9Y5R2); test: Binding to related MMP family members
[3] = target: T1, MMP1 (Homo sapiens, UniProt P03956); test: Binding to related MMP family members
[4] = target: MMP9 (Homo sapiens, UniProt P14780); test: Effect on related MMP catalytic activity; assay type: biochemical
[5] = tested on: catalytic domain of MT1; test: Bicycle peptide binding to catalytic domain
[6] = target: T2, MMP2 (Homo sapiens, UniProt P08253); test: Binding to related MMP family members
[7] = target: T3, Pro-MMP1 (Homo sapiens, UniProt P03956); test: Binding to related MMP family members
T3 construct: (MMP15, MMP16, MMP24, MMP1, Pro-MMP1, MMP2)

[8] = target: T2, MMP2; test: Effect on related MMP catalytic activity; assay type: biochemical
[9] = target: MMP15 (Homo sapiens, UniProt P51511); test: Binding to related MMP family members
[10] = target: hemopexin domain of MT1 (Homo sapiens, UniProt P50281); test: Bicycle peptide binding to hemopexin domain of MT1; conditions: read-out: apparent Kd
[11] = target: MMP16 (Homo sapiens, UniProt P51512); test: Binding to related MMP family members
[12] = target: MT1 (Homo sapiens, UniProt P50281); test: Effect on catalytic activity of the protease in vitro; assay type: biochemical
[13] = tested on: cell migration or invasion; test: Effect on cell migration or invasion; assay type: cell-based
[14] = target: T1, MMP1; test: Effect on related MMP catalytic activity; assay type: biochemical
[15] = Tolerability (body weight) in LU-01-0486 NSCLC PDX model; assay type: in vivo, mouse; conditions: dose not given; humane sacrifice of animals at day 24
Procedure: as §1, with “twice weekly),” for “every day),”

[16] = tested on: LU-01-0486 PDX; test: Efficacy in MT1-MMP low-expressing LU-01-0486 NSCLC PDX model; assay type: in vivo, mouse; conditions: dose not given
Procedure: The objective of this study was to evaluate the in vivo anti-tumor efficacy of I-1a in the treatment of MT1-MMP low-expressing LU-01-0486 PDX model in female Balb/C nude mice
Each mouse was inoculated subcutaneously at the right flank with LU-01-0486 of tumor fragment (30 mm^3) for tumor development. The treatments was started when the average tumor volume reaches 164 mm^3.
The major endpoint was to see if the tumor growth could be delayed or mice could be cured. Tumor size was measured two times weekly in two dimensions using a caliper, and the volume was expressed in mm^3 using the formula: V=0.5 a×b^2 where a and b are the long and short diameters of the tumor, respectively. […]
TGI was calculated for each group using the formula: TGI (%)=[1−(Ti−T0)/(Vi−V0)]×100; Ti is the average tumor volume of a treatment group on a given day, T0 is the average tumor volume of the treatment group on the day of treatment start, Vi is the average tumor volume of the vehicle control group on the same day with Ti, and V0 is the average tumor volume of the vehicle group on the day of treatment start.
A one-way ANOVA was performed to compare tumor volume among groups, and when a significant F-statistics (a ratio of treatment variance to the error variance) was obtained, comparisons between groups were carried out with Games-Howell test. All data were analyzed using Prism. […]

[17] = tested on: MT1-positive tumor xenografts; conditions: mouse, in vivo, iv
[18] = target: MT1-MMP (Homo sapiens, UniProt P50281); test: MT1-MMP fluorescent polarization competition; assay type: binding; conditions: up to 20 μM

T2 sequence (P08253 110-660, species assumed): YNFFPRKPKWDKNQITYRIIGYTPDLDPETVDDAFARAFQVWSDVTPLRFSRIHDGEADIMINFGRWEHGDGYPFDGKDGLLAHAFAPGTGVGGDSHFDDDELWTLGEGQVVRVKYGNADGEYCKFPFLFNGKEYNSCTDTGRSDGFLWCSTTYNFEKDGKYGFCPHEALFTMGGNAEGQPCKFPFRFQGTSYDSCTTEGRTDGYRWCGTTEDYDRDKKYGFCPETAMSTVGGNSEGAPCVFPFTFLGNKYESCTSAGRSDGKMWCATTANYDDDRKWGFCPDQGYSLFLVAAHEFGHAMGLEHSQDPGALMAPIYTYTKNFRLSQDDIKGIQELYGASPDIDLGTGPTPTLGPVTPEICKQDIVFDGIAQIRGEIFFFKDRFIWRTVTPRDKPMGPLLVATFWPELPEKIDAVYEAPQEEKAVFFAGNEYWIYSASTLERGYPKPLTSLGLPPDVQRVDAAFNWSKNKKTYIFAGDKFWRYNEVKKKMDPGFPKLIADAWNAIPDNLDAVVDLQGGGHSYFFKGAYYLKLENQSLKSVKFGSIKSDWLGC
T1 sequence (P03956 100-469, species assumed): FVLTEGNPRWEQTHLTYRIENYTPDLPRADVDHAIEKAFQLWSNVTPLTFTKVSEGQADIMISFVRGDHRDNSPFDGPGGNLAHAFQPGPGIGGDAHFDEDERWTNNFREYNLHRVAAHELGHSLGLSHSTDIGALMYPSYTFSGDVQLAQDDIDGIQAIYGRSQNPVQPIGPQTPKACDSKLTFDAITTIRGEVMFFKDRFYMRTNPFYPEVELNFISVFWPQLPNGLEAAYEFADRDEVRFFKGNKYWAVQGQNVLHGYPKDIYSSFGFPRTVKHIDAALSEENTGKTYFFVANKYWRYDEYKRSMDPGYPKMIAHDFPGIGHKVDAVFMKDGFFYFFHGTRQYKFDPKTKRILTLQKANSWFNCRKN
Sequence of MMP16 (P51512 120-607, species assumed): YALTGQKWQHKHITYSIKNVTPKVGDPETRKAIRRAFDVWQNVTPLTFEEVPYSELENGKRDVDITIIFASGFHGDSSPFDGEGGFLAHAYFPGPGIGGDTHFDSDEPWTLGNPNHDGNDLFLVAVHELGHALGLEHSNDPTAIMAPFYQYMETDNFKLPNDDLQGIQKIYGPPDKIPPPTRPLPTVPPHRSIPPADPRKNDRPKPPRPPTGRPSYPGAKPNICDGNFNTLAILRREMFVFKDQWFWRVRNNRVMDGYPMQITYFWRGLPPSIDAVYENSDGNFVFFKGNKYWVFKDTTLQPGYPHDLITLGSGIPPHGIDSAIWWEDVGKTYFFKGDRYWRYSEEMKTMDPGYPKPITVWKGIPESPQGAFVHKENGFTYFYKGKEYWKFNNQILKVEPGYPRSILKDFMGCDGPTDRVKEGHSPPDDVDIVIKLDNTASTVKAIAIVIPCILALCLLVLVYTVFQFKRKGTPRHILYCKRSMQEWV
Sequence of MMP9 (P14780 94-707, species assumed): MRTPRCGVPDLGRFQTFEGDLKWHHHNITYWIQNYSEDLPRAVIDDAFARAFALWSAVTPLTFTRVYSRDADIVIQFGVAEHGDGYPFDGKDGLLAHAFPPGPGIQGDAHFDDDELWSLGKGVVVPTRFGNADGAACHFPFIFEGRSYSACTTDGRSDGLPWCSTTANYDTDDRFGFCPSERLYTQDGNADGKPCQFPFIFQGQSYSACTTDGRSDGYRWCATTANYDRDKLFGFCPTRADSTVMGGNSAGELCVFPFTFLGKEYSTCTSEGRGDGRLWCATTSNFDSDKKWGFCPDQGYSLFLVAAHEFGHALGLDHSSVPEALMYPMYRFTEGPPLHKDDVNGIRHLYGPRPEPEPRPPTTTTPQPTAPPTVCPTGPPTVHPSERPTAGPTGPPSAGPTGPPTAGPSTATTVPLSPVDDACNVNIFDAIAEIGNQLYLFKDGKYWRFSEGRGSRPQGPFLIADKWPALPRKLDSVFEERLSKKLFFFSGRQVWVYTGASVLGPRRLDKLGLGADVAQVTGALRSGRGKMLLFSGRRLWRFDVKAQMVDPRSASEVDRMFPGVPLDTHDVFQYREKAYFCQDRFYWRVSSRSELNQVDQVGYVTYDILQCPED
Sequence of MMP24 (Q9Y5R2 156-645, species assumed): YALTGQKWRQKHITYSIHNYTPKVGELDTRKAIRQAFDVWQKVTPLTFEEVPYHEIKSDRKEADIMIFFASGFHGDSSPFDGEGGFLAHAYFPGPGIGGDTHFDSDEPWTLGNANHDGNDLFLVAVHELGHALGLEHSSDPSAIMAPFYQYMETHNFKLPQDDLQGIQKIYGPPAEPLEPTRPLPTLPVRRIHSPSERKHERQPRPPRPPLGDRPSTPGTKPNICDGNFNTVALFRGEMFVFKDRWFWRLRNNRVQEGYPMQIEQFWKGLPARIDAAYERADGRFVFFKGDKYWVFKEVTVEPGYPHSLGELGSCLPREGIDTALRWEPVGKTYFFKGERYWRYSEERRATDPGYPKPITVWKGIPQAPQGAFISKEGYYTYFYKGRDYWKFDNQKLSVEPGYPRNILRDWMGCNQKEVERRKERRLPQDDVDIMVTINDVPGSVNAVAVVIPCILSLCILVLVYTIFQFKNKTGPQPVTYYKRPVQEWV
T3 sequence (P03956 20-469 limits assumed): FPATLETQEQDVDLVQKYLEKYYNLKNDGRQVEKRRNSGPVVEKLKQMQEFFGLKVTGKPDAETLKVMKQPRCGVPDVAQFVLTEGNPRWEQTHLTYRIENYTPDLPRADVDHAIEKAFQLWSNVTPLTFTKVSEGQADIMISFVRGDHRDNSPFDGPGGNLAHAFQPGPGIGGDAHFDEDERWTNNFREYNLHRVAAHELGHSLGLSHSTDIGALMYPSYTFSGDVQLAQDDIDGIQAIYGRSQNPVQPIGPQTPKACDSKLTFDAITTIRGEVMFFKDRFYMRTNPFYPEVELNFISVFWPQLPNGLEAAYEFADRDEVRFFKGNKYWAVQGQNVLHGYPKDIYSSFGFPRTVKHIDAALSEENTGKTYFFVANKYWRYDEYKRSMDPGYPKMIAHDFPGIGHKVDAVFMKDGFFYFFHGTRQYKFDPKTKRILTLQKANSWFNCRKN
Sequence of MMP15 (P51511 132-669, species assumed): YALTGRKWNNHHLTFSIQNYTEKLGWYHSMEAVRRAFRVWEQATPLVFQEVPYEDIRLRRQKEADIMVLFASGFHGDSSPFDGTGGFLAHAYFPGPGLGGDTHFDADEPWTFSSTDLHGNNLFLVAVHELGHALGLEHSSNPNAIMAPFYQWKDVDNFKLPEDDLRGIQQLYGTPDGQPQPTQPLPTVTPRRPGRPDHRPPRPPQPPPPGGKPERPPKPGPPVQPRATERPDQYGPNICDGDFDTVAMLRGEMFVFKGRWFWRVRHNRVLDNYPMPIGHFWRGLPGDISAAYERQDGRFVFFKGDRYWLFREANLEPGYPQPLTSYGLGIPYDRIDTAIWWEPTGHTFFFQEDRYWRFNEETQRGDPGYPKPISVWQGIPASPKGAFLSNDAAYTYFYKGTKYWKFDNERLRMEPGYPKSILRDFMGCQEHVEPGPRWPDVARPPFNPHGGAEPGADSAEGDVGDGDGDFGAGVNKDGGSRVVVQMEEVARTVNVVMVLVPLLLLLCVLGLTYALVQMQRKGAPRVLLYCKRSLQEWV

Q: For COc1cc2cc(c1Cl)N(C)C(=O)C[C@H](OC(=O)[C@H](C)N(C)C(=O)CCN(C)C(=O)OCc1ccc(NC(=O)[C@H](CCCNC(N)=O)NC(=O)[C@@H](NC(=O)CCCC(=O)NCCC(=O)N(C)CC(=O)N(C)CC(=O)N(C)CC(=O)N(C)CC(=O)N(C)CC(=O)N(C)CC(=O)N(C)CC(=O)N(C)CC(=O)N(C)CC(=O)N(C)CC(=O)NC(C)C(=O)NC3CSCc4cc5cc(c4)CSCC(NC(=O)C(C)NC(=O)C(Cc4cccc6ccccc46)NC(=O)C(CCC(=O)O)NC(=O)C(CC(N)=O)NC(=O)C(C)NC3=O)C(=O)NC(C)C(=O)NC(CC(=O)O)C(=O)NC(Cc3ccccc3)C(=O)NC(Cc3ccc(O)cc3)C(=O)NC(CC(=O)O)C(=O)NC(C(C)(C)C)C(=O)NC(C(N)=O)CSC5)C(C)C)cc1)[C@]1(C)O[C@H]1[C@H](C)[C@@H]1C[C@@](O)(NC(=O)O1)[C@H](OC)/C=C/C=C(\C)C2 (stereo partly drawn) [Compound I-8] ({X4-PABC-Cit-Val-Glutaryl-βAla}-[Sar][Sar][Sar][Sar][Sar][Sar][Sar][Sar][Sar][Sar][ξA][ξC][ξA][ξN][ξE][ξ1Nal][ξA][ξC][ξA][ξD][ξF][ξY][ξD][ξTle][ξC]-NH2; linker 12-18-25 via TBMB), which “mouse with severe tumor ulceration” value ([1]; 1 mg/kg biw) is on record?
A: 1/3

Q: And the “mouse died at day 14” value ([1]; 3 mg/kg biw)?
A: 1/3

Q: Which results are given for C[C@H](NC(=O)CN(C)C(=O)CN(C)C(=O)CN(C)C(=O)CN(C)C(=O)CN(C)C(=O)CN(C)C(=O)CN(C)C(=O)CN(C)C(=O)CN(C)C(=O)CN(C)C(=O)CCN)C(=O)N[C@H]1CSCc2cc3cc(c2)CSC[C@H](NC(=O)[C@@H](C)NC(=O)[C@H](Cc2cccc4ccccc24)NC(=O)[C@H](CCC(=O)O)NC(=O)[C@H](CC(N)=O)NC(=O)[C@@H](C)NC1=O)C(=O)N[C@@H](CCC(=O)O)C(=O)N[C@@H](CC(=O)O)C(=O)N[C@@H](Cc1ccccc1)C(=O)N[C@@H](Cc1ccc(O)cc1)C(=O)N[C@@H](CC(=O)O)C(=O)N[C@@H](C(C)(C)C)C(=O)N[C@H](C(N)=O)CSC3 [Compound N241] (H-[βAla][Sar][Sar][Sar][Sar][Sar][Sar][Sar][Sar][Sar][Sar]AC[dA]NE[1Nal][dA]CEDFYD[Tle]C-NH2; linker 13-19-26 via TBMB; N-terminus and C-terminus assumed)?
A: binding (in words) [2]: no binding; binding (in words) [3]: no binding; impact on catalytic activity (in words) [4]: no direct impact; binding (in words) [5]: no binding; binding (in words) [6]: no binding; binding (in words) [7]: no binding; impact on catalytic activity (in words) [8]: no direct impact; binding (in words) [9]: no binding; Kd [10]: ~2 nM; binding (in words) [11]: no binding; impact on catalytic activity (in words) [12]: no direct impact; impact on cell migration or invasion (in words) [13]: no direct impact; impact on catalytic activity (in words) [14]: no direct impact

Q: With CC(=O)O[C@@]12CO[C@@H]1C[C@H](O)[C@@]1(C)C(=O)[C@H](O)C3=C(C)[C@@H](OC(=O)[C@H](O)[C@@H](NC(=O)OC(C)(C)C)c4ccccc4)C[C@@](O)([C@@H](OC(=O)c4ccccc4)[C@H]21)C3(C)C [Docetaxel] as the compound, how does the “effect on body weight (in words)” value [15] read?
A: severe weight loss

Q: What about the “inhibition of tumor growth (in words)” value [16] of the same compound?
A: significant inhibition of tumor growth

Q: With C[C@H](NC(=O)CN(C)C(=O)CN(C)C(=O)CN(C)C(=O)CN(C)C(=O)CN(C)C(=O)CN(C)C(=O)CN(C)C(=O)CN(C)C(=O)CN(C)C(=O)CN(C)C(=O)CCN)C(=O)N[C@H]1CSCc2cc3cc(c2)CSC[C@H](NC(=O)[C@@H](C)NC(=O)[C@H](Cc2cccc4ccccc24)NC(=O)[C@H](CCC(=O)O)NC(=O)[C@H](CC(N)=O)NC(=O)[C@@H](C)NC1=O)C(=O)N[C@@H](CCC(=O)O)C(=O)N[C@@H](CC(=O)O)C(=O)N[C@@H](Cc1ccccc1)C(=O)N[C@@H](Cc1ccc(O)cc1)C(=O)N[C@@H](CC(=O)O)C(=O)N[C@@H](C(C)(C)C)C(=O)N[C@H](C(N)=O)CSC3 [^177Lu-loaded N241, metal not drawn] (H-[βAla][Sar][Sar][Sar][Sar][Sar][Sar][Sar][Sar][Sar][Sar]AC[dA]NE[1Nal][dA]CEDFYD[Tle]C-NH2; linker 13-19-26 via TBMB; N-terminus and C-terminus assumed) as the compound, how does the “tumor localization (in words)” value [17] read?
A: rapid tumor localization

Q: With “(B-Ala)-Sar10-ACVPCADFPIWYC (SEQ ID NO: 17) (AXXXXXXXXXXACVPCADFPIWYC; not fully specified; N-methyl; non-natural residues) [non-binding peptide]” as the compound, how does the “inhibition in MT1-MMP fluorescent polarization competition” value [18] read?
A: no inhibition
